Reference: ChEMBL document CHEMBL3603840, “Discovery of non-competitive thrombin inhibitor derived from competitive tryptase inhibitor skeleton: Shift in molecular recognition resulted from skeletal conversion of carboxylate into phosphonate” (Bioorg Med Chem Lett, 2015)
The source made the active and inactive calls. The rule behind the calls is not given here.

How the values were obtained:
Tryptase [1] = biological target: T1, Tryptase (Homo sapiens, UniProt Q9BZJ3+Q15661+Q9NRR2); test: Inhibition of tryptase (unknown origin) using t-Boc-Phe-Ser-Arg-MCA as substrate at 10 uM after 5 mins by fluorimetric analysis; format: protein assay
Trypsin [2] = biological target: T2, Trypsin (Homo sapiens, UniProt P07477+P07478+P35030); test: Inhibition of trypsin (unknown origin) using Bz-Arg-pNA.HCl as substrate at 10 uM after 5 mins by colorimetric analysis; format: protein assay
Prothrombin [3] = biological target: T3, Prothrombin (Homo sapiens, UniProt P00734); test: Inhibition of thrombin (unknown origin) using t-Boc-Val-Pro-Arg-MCA as substrate at 10 uM after 5 mins by fluorimetric analysis
Prothrombin [4] = biological target: T3, Prothrombin; test: Non-competitive inhibition of thrombin (unknown origin) using t-Boc-Val-Pro-Arg-MCA as substrate by Lineweaver-Burk plot analysis
Trypsin [5] = biological target: T2, Trypsin; test: Inhibition of trypsin (unknown origin) using Bz-Arg-pNA.HCl as substrate after 5 mins by colorimetric analysis; format: protein assay
Tryptase [6] = biological target: T1, Tryptase; test: Inhibition of tryptase (unknown origin) using t-Boc-Phe-Ser-Arg-MCA as substrate after 5 mins by fluorimetric analysis; format: protein assay
Prothrombin [7] = biological target: T3, Prothrombin; test: Competitive inhibition of thrombin (unknown origin) using t-Boc-Val-Pro-Arg-MCA as substrate by Lineweaver-Burk plot analysis
Prothrombin [8] = biological target: T3, Prothrombin; test: Inhibition of thrombin (unknown origin) using t-Boc-Val-Pro-Arg-MCA as substrate after 5 mins by fluorimetric analysis

| SMILES | inhibition (Tryptase [1]) | inhibition (Trypsin [2]) | inhibition (Prothrombin [3]) | inhibition (Prothrombin [4]) | IC50 (Trypsin [5]) [µM] | IC50 (Tryptase [6]) [µM] | inhibition (Prothrombin [7]) | IC50 (Prothrombin [8]) [µM] |
| --- | --- | --- | --- | --- | --- | --- | --- | --- |
| CN1C(=O)c2ccc(NC(CCc3ccc(N)nc3)P(=O)(Oc3ccccc3)Oc3ccccc3)cc2C1=O (stereo not given) | inactive | inactive | inactive | – | – | – | – | – |
| CCOP(=O)(Cc1ccc(N)nc1)Oc1ccc2c(c1)C(=O)N(C)C2=O (stereo not given) | 5.3% | inactive | 59% | – | – | – | – | – |
| CCOP(=O)(CCc1ccc(N)nc1)Oc1ccc2c(c1)C(=O)N(C)C2=O (stereo not given) | 11% | inactive | 95% | inactive | – | – | – | – |
| CC(C)N1C(=O)c2ccc(NC(CCc3ccc(N)nc3)P(=O)(Oc3ccccc3)Oc3ccccc3)cc2C1=O (stereo not given) | inactive | inactive | inactive | – | – | – | – | – |
| CN1C(=O)c2ccc(OC(=O)CCc3ccc(N)nc3)cc2C1=O.Cl | 98% | 97% | 70% | – | 1.2 | 0.19 | Active | 5.3 |
